This note sets out measurements from patent US7605166B2, “Methods and compositions for treating rheumatoid arthritis” (Elan Pharmaceuticals Inc., priority 2003, dated 2009).

Series [1] deals with murine collagen-induced arthritis (CIA) model. Nature of the series: Murine collagen-induced arthritis (CIA) model: clinical scores. Type of series: in vivo, mouse. As to conditions: therapeutic CIA model, DBA/1LacJ mice, 100 mg/kg b.i.d. The protocol:
A murine collagen-induced arthritis (CIA) model was used to examine the pharmacological effect of anti-alpha4-integrin antibodies prophylactically, semi-therapeutically and therapeutically. Dosing of the antibody was begun on day 20 for the prophylactic animals. […] The results seen with the treatment of the CIA mice is seen in FIG. 1.
Peripheral blood leucocytes (PBLs) from mice treated with anti-alpha4, anti-α4β7 and anti-VCAM 1 antibodies were collected at 4, 12 and 24 hours after antibody dosing. Cells were stained with goat anti-rat antibodies to confirm antibodies in circulation.
The effect of the compound of Formula P was evaluated in a therapeutica CIA model. […] 100 DBA/1LacJ male mice, ages 6-8 weeks were obtained from Jackson Laboratories. The mice were immunized at Day 0 as follows: 100 μg bovine type II collagen (Chondrex) in Complete Freund's adjuvant (CFA, Sigma) were injected into the mice. At Day 21, another 100 μg bovine type II collagen (Chondrex) in Incomplete Freund's Adjuvant (IFA, Sigma) was injected into the mice. Treatment with the compound began when the animals had the disease (i.e., 100% therapeutic).
The mice are scored daily after the boost. […] Treatment continued for 3 weeks of dosing. Dosing was every other day for the antibody group and control group. […]

Series [2] in a line: Plasma compound levels in AIA rats (4 and 12 hours). Type of series: in vivo, rat. As to conditions: 12 hours after dosing, all concentrations tested (30, 10, 3 mg/kg).
A short description of series [3]: Blood levels of compound in CIA rats (12 hours trough). Format: in vivo, rat. As to conditions: at 12 hours, all concentrations tested. The protocol: (§1) The results in FIG. 6 show the results for compounds. There were 8 rats per group in the efficacy study. Paw swelling and erythema were measured daily and the tarsal paws collected for histological analysis at the end of the study. Plasma which was heparinized was collected at 12 hours (i.e., the trough level) and at 4 horus after the last dose for compound measurement (FIG. 6).

Another series relates to AIA Rats. The series is described as follows: Adjuvant-induced arthritis (AIA) in Lewis rats: paw swelling, erythema, histology. Format: in vivo, rat.
The test system of the next series is rat CIA model. Nature of the series: Rat CIA model: paw swelling, erythema, histology. Format: in vivo. As to conditions: rat CIA, 30, 10, 3 mg/kg b.i.d.; FIG. 6. The protocol:
Anti alpha-4 antibodies, and the compounds of Formulae W and Y were tested in the rat CIA model according to the methods shown in Table 14 below.
as §1

For `CCN(CC)c1ncc(N(CC)S(=O)(=O)c2ccc(Cl)cc2)c(NC(Cc2ccc(OC(=O)N3CCCC3)cc2)C(=O)O)n1` (stereo not shown) [Formula P], the disease progression result in series [1] is “no effect on disease progression”. The “levels of the compound relative to receptor saturation” value in series [2] was “above receptor saturation”. The “blood levels of the compound relative to receptor saturation” value in series [3] is “above receptor saturation”. Moreover, in the series on AIA Rats (Example F, all concentrations tested (30, 10, 3 mg/kg p.o. b.i.d.), FIG. 5), the disease result is reported as “ameliorate disease”.
In the case of `CC(C)OC(=O)[C@H](Cc1ccc(OC(=O)N2CCN(C)CC2)cc1)NC(=O)[C@H]1N(S(=O)(=O)c2cccnc2)CSC1(C)C` [Formula N, N-[N-(3-pyridinesulfonyl)-L-3,3-dimethyl-4-thiaprolyl]-O-[1-methylpiperazin-4-ylcarbonyl]-L-tyrosine isopropyl ester], the disease severity result is given as “neither the compound of Formula N nor Y had any impact on disease severity” in the series on rat CIA model and “no effect on disease severity” with AIA Rats (Example F, 3 mg/kg s.c. b.i.d.). Moreover, in the series with AIA Rats (AIA model, 30 mg/kg b.i.d.), the “clinical and histological scores” value was “ameliorate clinical and histological scores”.
